{"source": "patent US20250170212A1", "about": "“COMPOSITIONS AND METHODS OF TREATING AMYOTROPHIC LATERAL SCLEROSIS (ALS) AND RELATED DISORDERS” (BIOINCEPT, LLC, priority 2022, published 2025)", "key": {"[1]": {"test_system": "Iba1+ cells (microglial activation)", "assay": "Immunohistochemistry of microglial cells in brainstem motor nuclei", "assay_type": "in vivo, mouse", "details": "facial and hypoglossal motor nuclei; compared to Injury", "procedure": "(§1) At the end of experiment, mice were subjected to full body perfusion with 20% sucrose and 10% buffered formalin suitable for histology assays (Sigma Aldrich, St.Louis, MO, USA). Mice were decapitated and incubated in formalin for 24 h. Following the tissues (brain and spinal cord) were isolated, paraffin fixed for further analyses. After brain removal, the tissue was fixed in a formaldehyde solution (4%) for 2-4 hours at RT followed by 4° C. for a total time of 24-48 hours. Fixed tissues were embedded in paraffin and finally sectioned into 7 μm slices. […]\n(§2) Assessment of neuronal and microglial positive cells were performed in the region of interest (ROI). […] The images were analyzed and reconstructed using Image J (US National Institutes of Health).\n(§3) All quantifications were performed including the manual cell counts in a blinded manner. The NeuN and Ibal were counted as positive cells in the ROI (see above) as previously reported. The number of cells was determined by unbiased counting of positive cells. […] Differences between groups were analyzed using a repeated measure ANOVA model with a fixed effect for the group, of the time and a random intercept for the mouse. In a second, more explorative, approach for each group the time when the physical activity was first measured below a certain threshold was determined. […]"}, "[2]": {"test_system": "NeuN positive cells (mature neurons)", "assay": "Immunohistochemistry of mature neurons in brainstem motor nuclei", "assay_type": "in vivo, mouse", "details": "facial and hypoglossal motor nuclei; compared to Injury", "procedure": "as §1, §2, §3"}}}
{"sequence": "MVRIKPGSANKPSDD [sPIF]", "values": [{"measurement": "number of Iba1+ microglial cells (neuroinflammation)", "setting": "[1]", "result": "significant prevention of neuroinflammation"}, {"measurement": "number of mature neurons (NeuN positive cells)", "setting": "[2]", "result": "significant protection of neuronal cells"}]}
